This is an account of results in patent publication US6586413B2, “Methods and compositions for reducing ischemic injury of the heart by administering adenosine receptor agonists and antagonists” (The United States of America as represented by the …, priority 1999, dated 2003).

One assay deals with phospholipase C. The assay can be described thus: Phospholipase C activity in cardiac myocytes. In kind it is cell-based, chick. On the procedure: To further test this notion, the ability of 8-butylaminoCPA to stimulate phospholipase C as measured by […] formation, a downstream signaling molecule that mediates the cardioprotective effect of adenosine A1 receptor was determined.

The subject of assay [1] is ventricular myocytes cultured from chick embryos. Put plainly: Pharmacological preconditioning: 5 min exposure to agent, then 90 min simulated ischemia. In kind it is cell-based. As to conditions: for preconditioning / cardioprotective effect: agent alone, 5 min exposure before 90 min ischemia; for maximal protection compared with full agonist: partial agonist vs full agonist (CCPA or Cl-IB-MECA); for effect of high concentration of partial agonist on protection by full agonist: with full agonist CCPA or Cl-IB-MECA. On the procedure:
FIG. 14 is a graph showing that the partial A1 receptor agonist, 8-butylaminoCPA, mimics the cardioprotective effect of ischemic preconditioning. Ventricular myocytes were cultured from chick embryos 14 days in ovo. The ability of the partial A1 agonist, 8-butylaminoCPA (8-butylamino-N^6-cyclopentyladenosine), to induce preconditioning was determined. In brief, myocytes were exposed to 8-butylaminoCPA at the indicated concentrations for 5 min, incubated for 10 min with agonist-free medium, and then exposed to simulated ischemia for 90 min. The extent of myocyte injury was quantitated at the end of the 90 min period by determinating the percentage of cells killed and the amount of creatine kinase (CK) released (units per milligram of cell protein). Data are means±SE of values from five independent experiments.
Determination of myocyte injury was made at the end of the ninety-minute hypoxia, at which time myocytes were taken out of the hypoxic incubator and re-exposed to room air (normal % O2). Aliquots of the media were then obtained for creatine kinase (CK) activity measurement, which is followed by quantitation of the number of viable cells. Measurement of basal level of cell injury was made after parallel incubation of control cells under normal % O2. The extent of hypoxia-induced injury to the ventricular cell was quantitatively determined by the percentages of cells killed and by the amount of CK released into the media according to a previously described method (16, 23). […] In brief, the media were replaced with a trypsin-EDTA buffer to detach the cells, which was then followed by sedimentation of the viable myocytes. Parallel changes in % cells killed and CK released (16, 23) further validated this assay for % cells killed. The amount of CK was measured as enzyme activity (unit/mg), and increases in CK activity above the control level were determined. The percentage of cells killed was calculated as the number of cells obtained from the control group (representing cells not subjected to any hypoxia or drug treatment) minus the number of cells from the treatment group divided by number of cells in control group multiplied by 100%.
Media were then replaced with fresh media, which was then followed by exposure to 90-minute simulated ischemia and the data graphed.

For another assay, the system named is diacylglycerol level. Put plainly: Diacylglycerol (DAG) accumulation in [3H]myristate-labeled ventricular myocytes. Format: cell-based, chick. As to conditions: 1 μM 8-butylaminoCPA or 10 nM MRS1760 for 5 min. The method, then:
FIGS. 15A and 15B show the coupling of the partial A1 and A3 receptor agonists to stimulation of DAG accumulation and the differential inhibitory effects of the phospholipase C inhibitor U-73122 on the cardioprotection caused by 8-butylaminoCPA or by MRS1760, respectively. FIG. 15A: Ventricular myocytes were labeled with [^3H]myristate (Dupont, 49 Ci/mmol, […]) for 24 hours, exposed to 1 μM of 8-butylaminoCPA or 10 nM MRS1760 for 5 min, and the amount of DAG was determined by thin-layer chromatography. Data are expressed as the percentage increase in the amount of DAG relative to that for unstimulated cells, and are means±SE of values from five independent experiments. FIG. 15B: Effects of U-73122 on cardioprotection induced by 8-butylaminoCPA or by MRS1760 were determined. U-73122 (10 μM) was either included or not during the 5 min exposure of ventricular myocytes to 1 μM 8-butylaminoCPA or 10 nM MRS1760, and cardiac injury was assessed after ischemia as described herein below. […]
Quantitation of diacylglycerol (DAG) and measurement of phospholipase D (PLD) activity were carried out as previously described (35, 36). The formation of [^3H] phosphotidylethanol (PEt) during agonist exposure in media containing 0.5% (v/v) ethanol was determined by scintillation counting following its separation from other phospholipids on thin layer chromatography as described (36). […]

In another assay the test system is phospholipase D. Put plainly: Phospholipase D activity ([3H]phosphatidylethanol formation). In kind it is cell-based, chick. The method, then: Quantitation of diacylglycerol (DAG) and measurement of phospholipase D (PLD) activity were carried out as previously described (35, 36). The formation of [^3H] phosphotidylethanol (PEt) during agonist exposure in media containing 0.5% (v/v) ethanol was determined by scintillation counting following its separation from other phospholipids on thin layer chromatography as described (36). The level of [^3H] PEt represents an index of the PLD activity. The position of DAG or PEt was determined by immersing the thin layer plate in an iodine chamber and their levels were expressed as a percentage of total lipids. Data were expressed as the percentage increase in the amount of DAG or PEt relative to that for unstimulated cells.

In the case of `CCCCNc1nc2c(NC3CCCC3)ncnc2n1[C@@H]1O[C@H](CO)[C@@H](O)[C@H]1O` [8-butylaminoCPA, 8-butylamino-N^6-cyclopentyladenosine], the PLC activity entry with phospholipase C is “able to stimulate PLC activity”. Moreover, in assay [1], the “preconditioning / cardioprotective effect” value is reported as “able to induce a marked cardioprotective effect”, the “maximal protection compared with full agonist” value is listed as “less than that produced by the full agonist CCPA” and the “effect of high concentration of partial agonist on protection by full agonist” value is “able to antagonize the protection caused by the full agonist CCPA”. For the same compound, the diacylglycerol level result with diacylglycerol level was “an increase in the diacylglycerol level”.

Regarding `OC[C@@]12C[C@@H]1[C@@H](n1cnc3c(NCc4cccc(I)c4)nc(Cl)nc31)[C@H](O)[C@@H]2O` [MRS1760, (1′R,2′R,3′S,4′R,5′S)-4-{2-Chloro-6-[(3-iodophenylmethyl)amino]purin-9-yl}-1-(hydroxymethyl)bicyclo[3.1.0]-hexane-2,3-diol], the PLD activity entry with phospholipase D is recorded as “able to stimulate PLD activity”. In assay [1], the “preconditioning / cardioprotective effect” value is reported as “able to induce a marked protective effect against ischemia”, the “maximal protection compared with full agonist” value was “less than the maximal effect caused by Cl-IB-MECA” and the “effect of high concentration of partial agonist on protection by full agonist” value is recorded as “blocked the protection induced by the full agonist Cl-IB-MECA”. Also, the diacylglycerol level result in the assay with diacylglycerol level is given as “an increase in the diacylglycerol level”.
